According to patent US10681909B2, “Herbicidal triazoles” (FMC Corporation, priority 2014, dated 2020):

What was measured:
pigweed [1] = experiment: Test A postemergence; format: in vivo, Amaranthus retroflexus; settings: 0 to 100 scale (0 no effect, 100 complete control), approx. 10 d
Summary of the method: (§1)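 Pre- and postemergence spray tests in a loam soil–sand mixture: seeded soil received a directed spray, while established seedlings 2–10 cm high at the one- to two-leaf stage were treated over the top. Compounds were carried in non-phytotoxic solvent with surfactant.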

foxtail, giant [2] = experiment: Test C postemergence; format: in vivo, Setaria faberii
Summary of the method: (§2)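 Test chemicals in a non-phytotoxic solvent mixture with surfactant were applied to pots of plants at 2 to 18 cm (1- to 4-leaf stage) for postemergence treatment, grown in a peat-based medium with vermiculite, starter nutrients and dolomitic limestone. Preemergence treatment was to seeds freshly planted in loam soil mixed with sand.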

wheat = experiment: Test A postemergence; format: in vivo, Triticum aestivum; settings: 0 to 100 scale (0 no effect, 100 complete control), approx. 10 d
Summary of the method: as §1

pigweed [3] = experiment: Test C postemergence; format: in vivo, Amaranthus retroflexus
Summary of the method: as §2

foxtail, giant [4] = experiment: Test A postemergence; format: in vivo, Setaria faberii; settings: 0 to 100 scale (0 no effect, 100 complete control), approx. 10 d
Summary of the method: as §1

barnyardgrass [5] = experiment: Test B flooded paddy test; format: in vivo, Echinochloa crus-galli; settings: 250 g ai/ha, applied to paddy water at 2-leaf stage, visual rating after 13 to 15 d, scale 0 (no effect) to 100 (complete control)
Summary of the method: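 Pots were flooded to 3 cm above the soil at treatment, and compounds were applied directly into the paddy water. That depth was held throughout. After 13 to 15 d in a greenhouse, plants were rated visually against untreated controls.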

velvetleaf = experiment: Test C postemergence; format: in vivo, Abutilon theophrasti
Summary of the method: as §2

kochia = experiment: Test C postemergence; format: in vivo, Kochia scoparia
Summary of the method: as §2

oilseed rape = experiment: Test C postemergence; format: in vivo, Brassica napus
Summary of the method: as §2

johnsongrass = experiment: Test C postemergence; format: in vivo, Sorghum halepense
Summary of the method: as §2

blackgrass = experiment: Test C postemergence; format: in vivo, Alopecurus myosuroides
Summary of the method: as §2

barnyardgrass [6] = experiment: Test C postemergence; format: in vivo, Echinochloa crus-galli
Summary of the method: as §2

galium = experiment: Test C postemergence; format: in vivo, Galium aparine
Summary of the method: as §2

lambsquarters = experiment: Test C postemergence; format: in vivo, Chenopodium album
Summary of the method: as §2

corn = experiment: Test C postemergence; format: in vivo, Zea mays
Summary of the method: as §2

ragweed = experiment: Test C postemergence; format: in vivo, Ambrosia elatior
Summary of the method: as §2

barnyardgrass [7] = experiment: Test A preemergence; format: in vivo, Echinochloa crus-galli; settings: 0 to 100 scale (0 no effect, 100 complete control)
Summary of the method: as §1

crabgrass, large = experiment: Test C postemergence; format: in vivo, Digitaria sanguinalis
Summary of the method: as §2

waterhemp = experiment: Test C postemergence; format: in vivo, Amaranthus rudis
Summary of the method: as §2

COc1nc(-c2ccc(C(F)(F)F)cc2)nn1Cc1ccnc(C(F)(F)F)c1 [Compound 25]
Plant response rating, Pigweed (pigweed [1]; 31 g ai/ha): 90
Plant response rating, Pigweed (pigweed [1]; 125 g ai/ha): 100
Plant response rating (scale of 0 to 100 where 0 is no effect and 100 is complete control) (foxtail, giant [2]; 31 g ai/ha): 10
Plant response rating (scale of 0 to 100 where 0 is no effect and 100 is complete control) (foxtail, giant [2]; 62 g ai/ha): 20
Plant response rating (scale of 0 to 100 where 0 is no effect and 100 is complete control) (foxtail, giant [2]; 125 g ai/ha): 20
Plant response rating (scale of 0 to 100 where 0 is no effect and 100 is complete control) (foxtail, giant [2]; 250 g ai/ha): 35
Plant response rating, Wheat (wheat; 31 g ai/ha): 10
Plant response rating, Wheat (wheat; 125 g ai/ha): 20
Plant response rating (scale of 0 to 100 where 0 is no effect and 100 is complete control) (pigweed [3]; 31 g ai/ha): 100
Plant response rating (scale of 0 to 100 where 0 is no effect and 100 is complete control) (pigweed [3]; 62 g ai/ha): 100
Plant response rating (scale of 0 to 100 where 0 is no effect and 100 is complete control) (pigweed [3]; 125 g ai/ha): 100
Plant response rating (scale of 0 to 100 where 0 is no effect and 100 is complete control) (pigweed [3]; 250 g ai/ha): 100
Plant response rating, Foxtail, Giant (foxtail, giant [4]; 31 g ai/ha): 50
Plant response rating, Foxtail, Giant (foxtail, giant [4]; 125 g ai/ha): 90
Plant response rating, Barnyardgrass, Flood (barnyardgrass [5]): 35
Plant response rating (scale of 0 to 100 where 0 is no effect and 100 is complete control) (velvetleaf; 31 g ai/ha): 35
Plant response rating (scale of 0 to 100 where 0 is no effect and 100 is complete control) (velvetleaf; 62 g ai/ha): 50
Plant response rating (scale of 0 to 100 where 0 is no effect and 100 is complete control) (velvetleaf; 125 g ai/ha): 70
Plant response rating (scale of 0 to 100 where 0 is no effect and 100 is complete control) (velvetleaf; 250 g ai/ha): 75
Plant response rating (scale of 0 to 100 where 0 is no effect and 100 is complete control) (kochia; 31 g ai/ha): 90
Plant response rating (scale of 0 to 100 where 0 is no effect and 100 is complete control) (kochia; 62 g ai/ha): 90
Plant response rating (scale of 0 to 100 where 0 is no effect and 100 is complete control) (kochia; 125 g ai/ha): 90
Plant response rating (scale of 0 to 100 where 0 is no effect and 100 is complete control) (kochia; 250 g ai/ha): 95
Plant response rating (scale of 0 to 100 where 0 is no effect and 100 is complete control) (oilseed rape; Oilsee Rape, 250 g ai/ha): 90
Plant response rating (scale of 0 to 100 where 0 is no effect and 100 is complete control) (oilseed rape; Oilseed Rape, 31 g ai/ha): 90
Plant response rating (scale of 0 to 100 where 0 is no effect and 100 is complete control) (oilseed rape; Oilseed Rape, 62 g ai/ha): 90
Plant response rating (scale of 0 to 100 where 0 is no effect and 100 is complete control) (oilseed rape; Oilseed Rape, 125 g ai/ha): 90
Plant response rating (scale of 0 to 100 where 0 is no effect and 100 is complete control) (johnsongrass; 31 g ai/ha): 10
Plant response rating (scale of 0 to 100 where 0 is no effect and 100 is complete control) (johnsongrass; 62 g ai/ha): 20
Plant response rating (scale of 0 to 100 where 0 is no effect and 100 is complete control) (johnsongrass; 125 g ai/ha): 20
Plant response rating (scale of 0 to 100 where 0 is no effect and 100 is complete control) (johnsongrass; 250 g ai/ha): 30
Plant response rating (scale of 0 to 100 where 0 is no effect and 100 is complete control) (blackgrass; 31 g ai/ha): 5
Plant response rating (scale of 0 to 100 where 0 is no effect and 100 is complete control) (blackgrass; 62 g ai/ha): 10
Plant response rating (scale of 0 to 100 where 0 is no effect and 100 is complete control) (blackgrass; 125 g ai/ha): 30
Plant response rating (scale of 0 to 100 where 0 is no effect and 100 is complete control) (blackgrass; 250 g ai/ha): 60
Plant response rating (scale of 0 to 100 where 0 is no effect and 100 is complete control) (barnyardgrass [6]; 31 g ai/ha): 20
Plant response rating (scale of 0 to 100 where 0 is no effect and 100 is complete control) (barnyardgrass [6]; 62 g ai/ha): 25
Plant response rating (scale of 0 to 100 where 0 is no effect and 100 is complete control) (barnyardgrass [6]; 125 g ai/ha): 35
Plant response rating (scale of 0 to 100 where 0 is no effect and 100 is complete control) (barnyardgrass [6]; 250 g ai/ha): 35
Plant response rating (scale of 0 to 100 where 0 is no effect and 100 is complete control) (galium; 31 g ai/ha): 80
Plant response rating (scale of 0 to 100 where 0 is no effect and 100 is complete control) (galium; 62 g ai/ha): 90
Plant response rating (scale of 0 to 100 where 0 is no effect and 100 is complete control) (galium; 125 g ai/ha): 90
Plant response rating (scale of 0 to 100 where 0 is no effect and 100 is complete control) (galium; 250 g ai/ha): 90
Plant response rating (scale of 0 to 100 where 0 is no effect and 100 is complete control) (lambsquarters; 31 g ai/ha): 90
Plant response rating (scale of 0 to 100 where 0 is no effect and 100 is complete control) (lambsquarters; 62 g ai/ha): 90
Plant response rating (scale of 0 to 100 where 0 is no effect and 100 is complete control) (lambsquarters; 125 g ai/ha): 98
Plant response rating (scale of 0 to 100 where 0 is no effect and 100 is complete control) (lambsquarters; 250 g ai/ha): 98
Plant response rating (scale of 0 to 100 where 0 is no effect and 100 is complete control) (corn; 31 g ai/ha): 20
Plant response rating (scale of 0 to 100 where 0 is no effect and 100 is complete control) (corn; 62 g ai/ha): 20
Plant response rating (scale of 0 to 100 where 0 is no effect and 100 is complete control) (corn; 125 g ai/ha): 25
Plant response rating (scale of 0 to 100 where 0 is no effect and 100 is complete control) (corn; 250 g ai/ha): 25
Plant response rating (scale of 0 to 100 where 0 is no effect and 100 is complete control) (ragweed; 31 g ai/ha): 65
Plant response rating (scale of 0 to 100 where 0 is no effect and 100 is complete control) (ragweed; 62 g ai/ha): 80
Plant response rating (scale of 0 to 100 where 0 is no effect and 100 is complete control) (ragweed; 125 g ai/ha): 75
Plant response rating (scale of 0 to 100 where 0 is no effect and 100 is complete control) (ragweed; 250 g ai/ha): 85
Plant response rating, Barnyardgrass (barnyardgrass [7]; 31 g ai/ha): 10
Plant response rating, Barnyardgrass (barnyardgrass [7]; 125 g ai/ha): 70
Plant response rating (scale of 0 to 100 where 0 is no effect and 100 is complete control) (crabgrass, large; 31 g ai/ha): 15
Plant response rating (scale of 0 to 100 where 0 is no effect and 100 is complete control) (crabgrass, large; 62 g ai/ha): 20
Plant response rating (scale of 0 to 100 where 0 is no effect and 100 is complete control) (crabgrass, large; 125 g ai/ha): 30
Plant response rating (scale of 0 to 100 where 0 is no effect and 100 is complete control) (crabgrass, large; 250 g ai/ha): 45
Plant response rating (scale of 0 to 100 where 0 is no effect and 100 is complete control) (waterhemp; 31 g ai/ha): 95
Plant response rating (scale of 0 to 100 where 0 is no effect and 100 is complete control) (waterhemp; 62 g ai/ha): 95
Plant response rating (scale of 0 to 100 where 0 is no effect and 100 is complete control) (waterhemp; 125 g ai/ha): 98
Plant response rating (scale of 0 to 100 where 0 is no effect and 100 is complete control) (waterhemp; 250 g ai/ha): 95
